“Also recorded” adds a separate entry of the source. Where two headings read alike, the source gives them in different places.
Columns and labels:
[1] = molecular target: T1, ERα (Homo sapiens, UniProt P03372); assay: Competitive binding assay using [3H]E2 against GST-fused ERα LBD
T1 construct: the ERα LBD was amplified by polymerase chain reaction and subcloned into the pGEX-6P-1 vector; made in house; host or cells: Escherichia coli BL21α
T1 sequence (P03372 311-547 limits assumed): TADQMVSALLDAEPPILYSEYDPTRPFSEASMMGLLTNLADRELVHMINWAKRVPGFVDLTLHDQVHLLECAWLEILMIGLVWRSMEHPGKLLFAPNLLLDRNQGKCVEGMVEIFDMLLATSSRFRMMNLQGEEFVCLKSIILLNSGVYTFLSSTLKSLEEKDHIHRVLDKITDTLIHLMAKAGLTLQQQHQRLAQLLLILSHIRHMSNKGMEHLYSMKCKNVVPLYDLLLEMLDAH
Excerpt: The ERα cDNA clone was purchased from OriGene Technologies, Inc. (Rockville, MD, USA). For construction of the expression plasmid, the ERα LBD was amplified by polymerase chain reaction and subcloned into the pGEX-6P-1 vector (GE Healthcare, Chicago, IL, USA) to obtain as a GST-fused protein. The GST-fused ERα -LBD was expressed in Escherichia coli BL21α cells and purified using Glutathione-Sepharose 4B (GE Healthcare), followed by gel filtration on a Sephadex G-10 column (GE Healthcare).
We performed the radioligand binding assays for ERα according to previously reported by method. […] GST-ERα-LBD (20 ng) was incubated with a series of [^3H]E2 (0.1–30 nM) in a total volume of 100 μL of binding buffer [10% glycerol, 10 mM Tris, 1 mM EGTA, 1 mM EDTA, 1 mM sodium vanadate (V), 0.5 mM phenylmethylsulfonyl fluoride, and 0.2 mM leupeptin (pH 7.4)] for 2 h at 20 °C in order to estimate total binding. Specific binding was calculated by subtracting the nonspecific binding determined by addition of 10 μM non-radiolabeled E2 to another set of working solutions from the observed total binding. After incubation, free radioligand was removed by addition and incubation of 100 μL 0.4% dextran-coated charcoal (Sigma-Aldrich) in phosphate-buffered saline (PBS; pH 7.4) on ice for 10 min. After centrifugation for 10 min at 15,000 rpm, the radioactivity of each supernatant was measured using a liquid scintillation counter (LS6500; Beckman Coulter, Fullerton, CA, USA). The data of the calculated specific binding of [^3H]E2 were assessed by Scatchard plot analysis.
The binding affinities of the test compounds were evaluated by competitive binding assays. Each chemical was dissolved in DMSO to prepare a 1.0-mM stock solution, followed by subsequent incubation of serial dilutions (1 pM to 10 μM) with GST- ERα-LBD (20 ng) and [^3H]E2 (5 nM, final) for 2 hrs at 20 °C to assess their ability to hinder the binding of [^3H]E2. Free radioligand was absorbed by 0.4% dextran-coated charcoal for the saturation binding assay and removed by the vacuum filtration system using a 96-well filtration plate (MultiScreenHTS HV; […] pore size; Merck KGaA, Darmstadt, Germany). The radioactivities of the eluents were measured using a TopCount NXT system (PerkinElmer) for 3 min/well.

[2] = molecular target: T2, ERα (Homo sapiens, UniProt P03372); assay: Luciferase-reporter assay for agonist activity in transiently transfected HeLa cells; format: cell-based; settings: for ERα agonist / transcriptional activity (in words): reporter-gene assay, 0.1-10 μM
T2 construct: expressed in transfected cells; host or cells: HeLa cells
T2 sequence (P03372 1-595): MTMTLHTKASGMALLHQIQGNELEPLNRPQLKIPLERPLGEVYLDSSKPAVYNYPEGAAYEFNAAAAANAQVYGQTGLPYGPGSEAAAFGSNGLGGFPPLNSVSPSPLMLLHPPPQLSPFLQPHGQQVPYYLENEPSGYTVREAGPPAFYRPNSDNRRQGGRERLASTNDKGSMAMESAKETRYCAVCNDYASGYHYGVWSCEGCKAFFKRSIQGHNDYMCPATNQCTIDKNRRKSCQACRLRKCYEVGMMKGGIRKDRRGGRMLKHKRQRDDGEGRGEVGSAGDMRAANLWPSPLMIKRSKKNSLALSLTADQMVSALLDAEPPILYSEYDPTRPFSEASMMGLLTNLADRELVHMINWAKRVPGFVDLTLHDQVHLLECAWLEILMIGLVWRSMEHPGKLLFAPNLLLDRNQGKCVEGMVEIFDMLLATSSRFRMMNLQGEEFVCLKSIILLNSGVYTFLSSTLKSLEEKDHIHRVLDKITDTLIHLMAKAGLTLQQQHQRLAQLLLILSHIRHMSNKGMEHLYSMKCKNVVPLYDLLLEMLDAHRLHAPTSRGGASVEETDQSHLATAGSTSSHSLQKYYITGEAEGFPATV
Method: HeLa cells were maintained in Eagle’s minimum essential medium (MEM; Nissui Pharmaceutical Co., Ltd, Tokyo, Japan) supplemented with 10% (v/v) foetal bovine serum treated with dextran-coated charcoal at 37 °C under 5% CO2. To analyse the agonist activity, HeLa cells were incubated at a density of 5 × 10^5 cells per 60-mm dish for 24 h, followed by transfection of 3 μg of the reporter plasmid (3 × ERE/pGL4.23) and 1 μg of the ERα expression plasmid (ERα/pcDNA3.1) using Lipofectamine LTX reagent (Thermo Fisher Scientific, Waltham, MA, USA) according to the manufacturer’s instructions. After 24 h, cells were harvested, suspended in Eagle’s MEM, and seeded into 96-well plates at 5 × 10^4 cells/well, followed by treatment with a series of the test compounds diluted with 1% bovine serum albumin (BSA)/PBS (v/v) to prepare different concentrations (0–10 μM). After a 24-h incubation, luciferase activity was measured using a Luciferase Assay system (Promega, Madison, WI, USA) according to the manufacturer’s instructions. […] Cells treated only with 1% BSA/PBS were used as a vehicle control. Each assay was performed in triplicate and repeated at least three times.

[3] = molecular target: T2, ERα; assay: Luciferase-reporter assay for antagonist activity in the presence of E2, HeLa cells; format: cell-based; settings: for ERα antagonist activity against E2-induced transcription (in words): 1 pM to 10 μM compound in a solution of E2 (1 nM); for reduction of E2-mediated ERα activity: highest concentration, 10 μM
Method: HeLa cells were maintained in Eagle’s minimum essential medium (MEM; Nissui Pharmaceutical Co., Ltd, Tokyo, Japan) supplemented with 10% (v/v) foetal bovine serum treated with dextran-coated charcoal at 37 °C under 5% CO2. To analyse the agonist activity, HeLa cells were incubated at a density of 5 × 10^5 cells per 60-mm dish for 24 h, followed by transfection of 3 μg of the reporter plasmid (3 × ERE/pGL4.23) and 1 μg of the ERα expression plasmid (ERα/pcDNA3.1) using Lipofectamine LTX reagent (Thermo Fisher Scientific, Waltham, MA, USA) according to the manufacturer’s instructions. After 24 h, cells were harvested, suspended in Eagle’s MEM, and seeded into 96-well plates at 5 × 10^4 cells/well, followed by treatment with a series of the test compounds diluted with 1% bovine serum albumin (BSA)/PBS (v/v) to prepare different concentrations (0–10 μM). After a 24-h incubation, luciferase activity was measured using a Luciferase Assay system (Promega, Madison, WI, USA) according to the manufacturer’s instructions. Briefly, cells were lysed using reporter lysis buffer (Promega), and luminescence was measured using a Wallace 1420 ARVOsx multilabel counter (PerkinElmer). Cells treated only with 1% BSA/PBS were used as a vehicle control. Each assay was performed in triplicate and repeated at least three times.
To evaluate antagonistic activity, we examined serial concentrations of test compounds (0–10 μM, final) in the presence of 1 nM or 10 nM concentrations of E2, which normally induces basal levels of ERα-related transcriptional activity.

[4] = test system: oestrogen receptors (ERs); settings: cited from earlier work
[5] = test system: adult male mouse offspring; settings: in utero exposure to 2 μg/kg/day or 20 μg/kg/day; cited from earlier work
[6] = contaminant of industrial BPA; cited from earlier work
[7] = [3H]17β-oestradiol radioligand (5 nM), GST-ERα-LBD, mean ± SE, read-out: Binding affinity (IC50)

Compound: CC(C)(c1ccc(O)cc1)c1ccc(C(C)(C)c2ccc(O)cc2)cc1 [compound 11, bisphenol P]
- IC50 [1, 7]: 176 ± 35 nM
- ERα agonist / transcriptional activity (in words) [2]: weak transcriptional activity
- ERα agonist / transcriptional activity (in words) ([2]; listed as BPP): almost no ERα-specific transcriptional activity
- ERα antagonist activity against E2-induced transcription (in words) [3]: inhibited the agonist activity of 1 nM E2 in a dose-dependent manner
- reduction of E2-mediated ERα activity [3]: up to 90%

Compound: Oc1ccc(C(=C(Cl)Cl)c2ccc(O)cc2)cc1 [compound 1, bisphenol C]
- IC50 ([1]; [3H][…] radioligand (5 nM), GST-ERα-LBD, mean ± SE, read-out: Binding affinity (IC50)): 2.81 ± 0.61 nM
- transcriptional activity relative to that of E2 ([2]; ERα reporter-gene assay): ~ 60%
- ERα agonist / transcriptional activity (in words) [2]: apparent agonistic activity
- ERα antagonist activity against E2-induced transcription (in words) [3]: did not observe any antagonistic activity

Compound: CC(C)(c1ccc(O)cc1)c1ccc(O)cc1 [compound 21, bisphenol A]
- ERα agonist / transcriptional activity (in words) [2]: apparent agonistic activity
- affinity for ERs weaker than 17β-oestradiol (E2) [4]: > 1,000 fold
- effect on prostate in adult male offspring (in words) [5]: increases prostate size and weight

Compound: CCCCC(CC)C(c1ccc(O)cc1)c1ccc(O)cc1 (stereo not drawn) [compound 4, 4,4-(2-ethylhexylidene)bisphenol]
- IC50 [1, 7]: 18.5 ± 6.86 nM
- ERα agonist / transcriptional activity (in words) [2]: apparent agonistic activity

Compound: CC1(C)CC2(CC(C)(C)c3ccc(O)cc3O2)Oc2cc(O)ccc21 [compound 16, spirobicromane]
- IC50 [1, 7]: 366 ± 20 nM
- ERα agonist / transcriptional activity (in words) [2]: weak transcriptional activity
- ERα antagonist activity against E2-induced transcription (in words) [3]: inhibited the agonist activity of 1 nM E2 in a dose-dependent manner
- reduction of E2-mediated ERα activity [3]: up to 90%

Compound: Cc1cc(C(c2ccccc2O)c2cc(C)c(O)c(C)c2C)c(C)c(C)c1O [compound 3, 4,4′-(2-hydroxybenzylidene)-bis(2,3,6-trimethylphenol)]
- IC50 [1, 7]: 12.3 ± 7.25 nM
- ERα agonist / transcriptional activity (in words) [2]: apparent agonistic activity

Compound: CCC(C)(c1ccc(O)cc1)c1ccc(O)cc1 [compound 12, bisphenol B]
- IC50 [1, 7]: 195 ± 44 nM
- ERα agonist / transcriptional activity (in words) [2]: apparent agonistic activity

Compound: CC(C)(c1ccc(O)cc1)c1cccc(C(C)(C)c2ccc(O)cc2)c1 [compound 7, bisphenol M]
- IC50 [1]: 56.8 ± 11.7 nM
- ERα agonist / transcriptional activity (in words) [2]: weak transcriptional activity
- ERα agonist / transcriptional activity (in words) ([2]; listed as BPM): almost no ERα-specific transcriptional activity
- ERα antagonist activity against E2-induced transcription (in words) [3]: inhibited the agonist activity of 1 nM E2 in a dose-dependent manner
- reduction of E2-mediated ERα activity [3]: up to 90%

Compound: Cc1cc(C(C)(C)c2ccc(C(C)(C)c3cc(C)c(O)c(C)c3)cc2)cc(C)c1O [compound 18, α,α′-bis(4-hydroxy-3,5-dimethylphenyl)-1,4-diisopropylbenzene]
- IC50 [1, 7]: 733 ± 628 nM
- ERα agonist / transcriptional activity (in words) [2]: weak transcriptional activity
- ERα antagonist activity against E2-induced transcription (in words) [3]: inhibited the agonist activity of 1 nM E2 in a dose-dependent manner
- reduction of E2-mediated ERα activity [3]: up to 90%

Compound: Oc1ccc(C2(c3ccc(O)cc3)c3ccccc3-c3ccccc32)cc1 [compound 22, 9,9-bis(4-hydroxyphenyl)fluorine]
- IC50 [1, 7]: 2230 ± 202 nM
- binding to the ERα LBD (in words) ([1]; competitive binding assay using [3H]E2): directly binds to the ERα LBD
- ERα agonist / transcriptional activity (in words) [2]: weak transcriptional activity

Compound: CC(C)(c1ccc(O)cc1)c1ccc(C(C)(c2ccc(O)cc2)c2ccc(O)cc2)cc1 [compound 10, α,α,α′-tris(4-hydroxyphenyl)-1-ethyl-4-isopropylbenzene]
- IC50 [1, 7]: 61.7 ± 10.4 nM
- ERα agonist / transcriptional activity (in words) [2]: weak transcriptional activity; also recorded: almost no ERα-specific transcriptional activity
- ERα antagonist activity against E2-induced transcription (in words) [3]: inhibited the agonist activity of 1 nM E2 in a dose-dependent manner
- reduction of E2-mediated ERα activity [3]: up to 90%

Compound: CC(C)CC(C)(c1ccc(O)cc1)c1ccc(O)cc1 [compound 2, 4,4′-(1,3-dimethylbuthylidene)bisphenol]
- estrogenic activity higher than laboratory grade BPA [6]: 8 fold

Source: PMC6616570, “Discovery of novel oestrogen receptor α agonists and antagonists by screening a revisited privileged structure moiety for nuclear receptors” (Scientific Reports, 2019)
